Measurements: PMC6323060, “Expression in eukaryotic cells and purification of synthetic gene encoding enterocin P: a bacteriocin with broad antimicrobial spectrum” (AMB Express, 2019)
Values after ≈ are worked out from the molar mass of the structure shown. Ends that are not written are not given here.

Experiments:
Salmonella typhi = assay: MIC, broth micro-dilution (CLSI); type: cell-based; details: Salmonella typhi clinical isolate, MHB, approx. 5 × 10^5 CFU/ml, overnight 37 °C, triplicate; for MIC: Salmonella enterica, read-out: Antimicrobial activity MIC
Salmonella paratyphi C = assay: MIC, broth micro-dilution (CLSI); type: cell-based; details: Salmonella enterica, read-out: Antimicrobial activity MIC
Shigella dysenteriae = assay: MIC, broth micro-dilution (CLSI); type: cell-based; details: for MIC: Shigella dysenteriae, read-out: Antimicrobial activity MIC
Listeria monocytogenes = assay: MIC, broth micro-dilution (CLSI); details: for MIC: Listeria monocytogenes, read-out: Antimicrobial activity MIC
E. coli ATCC 25922 = assay: MIC, broth micro-dilution (CLSI); details: Escherichia coli, ATCC25922, read-out: Antimicrobial activity MIC
[1] = tested on: Pseudomonas aeruginosa ATCC 27853; assay: MIC, broth micro-dilution (CLSI); details: for MIC: Pseudomonas aeruginosa, ATCC27853, read-out: Antimicrobial activity MIC
[2] = tested on: Pseudomonas aeruginosa VIM+; assay: MIC, broth micro-dilution (CLSI); details: for MIC: Pseudomonas aeruginosa, read-out: Antimicrobial activity MIC
[3] = tested on: Acinetobacter baumannii ATCC 13304; assay: MIC, broth micro-dilution (CLSI); details: ATCC13304, read-out: Antimicrobial activity MIC
[4] = tested on: Klebsiella pneumonia ATCC 700603; assay: MIC, broth micro-dilution (CLSI); details: for MIC: Klebsiella pneumoniae, ATCC700603, read-out: Antimicrobial activity MIC
[5] = tested on: Staphylococcus aureus ATCC 25923; assay: MIC, broth micro-dilution (CLSI); details: for MIC: Staphylococcus aureus, ATCC25923, read-out: Antimicrobial activity MIC
[6] = tested on: Staphylococcus aureus ATCC 29213; assay: MIC, broth micro-dilution (CLSI); details: for MIC: Staphylococcus aureus, ATCC29213, read-out: Antimicrobial activity MIC
[7] = tested on: Enterococcus faecalis ATCC 29212; assay: MIC, broth micro-dilution (CLSI); details: for MIC: Enterococcus faecalis, ATCC29212, read-out: Antimicrobial activity MIC
MRSA ATCC 33591 = assay: MIC, broth micro-dilution (CLSI); details: for MIC: Staphylococcus aureus, read-out: Antimicrobial activity MIC
VRE = assay: MIC, broth micro-dilution (CLSI); details: for MIC: Enterococcus, VRE, read-out: Antimicrobial activity MIC
E. coli (ATCC 25922) [8] = assay: Effect of salt (NaCl) on antimicrobial activity; type: cell-based, Escherichia coli; set-up: key: +: presence of activity; −: absence of activity; details: 4 h, CFU counted after 24 h at 37 °C, triplicate
Method: (§1) To investigate the activities of the EntP peptide in the presence of high salt concentrations, the MIC was determined as described above, except that fixed concentration of NaCl was added to each well of the microtiter plate. Overnight cultures of S. aureus (ATCC 25923) and E. coli (ATCC 25922) as Gram-positive and Gram-negative model strains were incubated in MHB with 0, 50, 100, or 150 mM NaCl for 4 h. Bacteria were serially diluted and plated in triplicate on Trypticase soy agar (HiMedia, India) plates. CFUs were counted after 24 h of incubation at 37 °C. The stability of EntP peptide in 50% human plasma was evaluated as previously described (Hou et al. [2011]). The human plasma was determined to contain no antimicrobial activity before the test. Then 800 μg/ml of recombinant EntP peptide was diluted 1:1 with fresh human plasma and incubated at 37 °C for 0, 3, or 6 h. After incubation, the antimicrobial activity of each sample was determined by MIC assays with S. aureus (ATCC 25923) and E. coli (ATCC 25922).

S. aureus (ATCC 25923) [9] = assay: Effect of salt (NaCl) on antimicrobial activity; type: cell-based, Staphylococcus aureus; set-up: key: +: presence of activity; −: absence of activity; details: 4 h, CFU counted after 24 h at 37 °C, triplicate
Method: as §1

E. coli (ATCC 25922) [10] = assay: Stability in 50% human plasma, read out as antimicrobial activity (MIC assay); type: in vitro ADME, Escherichia coli; set-up: key: +: presence of activity; −: absence of activity; details: 800 μg/ml peptide diluted 1:1 with fresh human plasma (50%), 37 °C
Method: as §1

S. aureus (ATCC 25923) [11] = assay: as above; type: in vitro ADME, Staphylococcus aureus; set-up: key: +: presence of activity; −: absence of activity; details: 800 μg/ml peptide diluted 1:1 with fresh human plasma (50%), 37 °C
Method: as §1

[12] = tested on: S. aureus (ATCC 25923) and E. coli (ATCC 25922); assay: Antimicrobial activity in 50% human plasma, overall statement; type: in vitro ADME; details: 37 °C, 0, 3 or 6 h, read-out MIC assay
Method: as §1

CCN1CCN(C(=O)N[C@@H](C(=O)N[C@@H]2C(=O)N3[C@@H]2SC(C)(C)[C@@H]3C(=O)O)c2ccccc2)C(=O)C1=O [Piperacillin]
MIC (Salmonella typhi): 4 µg/mL (≈ 7.73 µM)
MIC (Salmonella paratyphi C): ≤ 8 µg/mL
MIC (Shigella dysenteriae): 4 µg/mL (≈ 7.73 µM)
MIC (Listeria monocytogenes): 4 µg/mL (≈ 7.73 µM)
MIC (E. coli ATCC 25922): ≤ 8 µg/mL
MIC [1]: ≤ 8 µg/mL
MIC [2]: ≥ 128 µg/mL
MIC [3]: ≥ 64 µg/mL
MIC [4]: ≥ 128 µg/mL

CC(C)(O/N=C(\C(=O)N[C@@H]1C(=O)N2C(C(=O)[O-])=C(C[n+]3ccccc3)CS[C@H]12)c1csc(N)n1)C(=O)O [Ceftazidime]
MIC (Salmonella typhi): 4 µg/mL (≈ 7.32 µM)
MIC (Salmonella paratyphi C): 4 µg/mL (≈ 7.32 µM)
MIC (Shigella dysenteriae): ≤ 2 µg/mL
MIC [5]: ≤ 2 µg/mL
MIC [6]: ≤ 2 µg/mL
MIC [7]: ≤ 4 µg/mL
MIC (Listeria monocytogenes): ≤ 4 µg/mL
MIC (E. coli ATCC 25922): ≤ 2 µg/mL
MIC [1]: 2 µg/mL (≈ 3.66 µM)
MIC (MRSA ATCC 33591): 16 µg/mL (≈ 29.3 µM)
MIC (VRE): 32 µg/mL (≈ 58.5 µM)
MIC [2]: ≥ 32 µg/mL
MIC [3]: ≥ 32 µg/mL
MIC [4]: ≥ 16 µg/mL

CN[C@H](CC(C)C)C(=O)N[C@H]1C(=O)N[C@@H](CC(N)=O)C(=O)N[C@H]2C(=O)N[C@H]3C(=O)N[C@H](C(=O)N[C@H](C(=O)O)c4cc(O)cc(O)c4-c4cc3ccc4O)[C@H](O)c3ccc(c(Cl)c3)Oc3cc2cc(c3O[C@@H]2O[C@H](CO)[C@@H](O)[C@H](O)[C@H]2O[C@H]2C[C@](C)(N)[C@H](O)[C@H](C)O2)Oc2ccc(cc2Cl)[C@H]1O [Vancomycin]
MIC [5]: ≤ 1 µg/mL
MIC [6]: ≤ 1 µg/mL
MIC [7]: ≤ 1 µg/mL
MIC (Listeria monocytogenes): 1 µg/mL (≈ 0.69 µM)
MIC (MRSA ATCC 33591): ≥ 16 µg/mL
MIC (VRE): ≥ 32 µg/mL

CC1(C)S[C@@H]2[C@H](NC(=O)[C@H](N)c3ccccc3)C(=O)N2[C@H]1C(=O)O [Ampicillin]
MIC (Salmonella typhi): 2 µg/mL (≈ 5.72 µM)
MIC (Salmonella paratyphi C): 2 µg/mL (≈ 5.72 µM)
MIC (Shigella dysenteriae): 4 µg/mL (≈ 11.4 µM)
MIC [5]: ≤ 1 µg/mL
MIC [6]: ≤ 1 µg/mL
MIC [7]: ≤ 1 µg/mL
MIC (Listeria monocytogenes): 2 µg/mL (≈ 5.72 µM)
MIC (E. coli ATCC 25922): ≤ 2 µg/mL
MIC [4]: > 128 µg/mL

enterocin P (ATRSYGNGVYCNNSKCWVNWGEAKENIAGIVISGWASGLAGMGH-{H2N-H2N-H2N-H2N-H2N-H2N}; ends and bridges not checked; UniProt O30434 28-71, looked up) [EntP]
Antimicrobial activity MIC (Salmonella typhi): 16 µg/mL
Antimicrobial activity MIC (Shigella dysenteriae; Shigella dysenteriae clinical isolate, broth micro-dilution (CLSI), MHB, approx. 5 × 10^5 CFU/ml, overnight 37 °C, triplicate): 128 µg/mL
Activity after treatment with salt (E. coli (ATCC 25922) [8]; 0 mM NaCl in MHB): +
Activity after treatment with salt (E. coli (ATCC 25922) [8]; 50 mM NaCl in MHB): +
Activity after treatment with salt (E. coli (ATCC 25922) [8]; 100 mM NaCl in MHB): +
Activity after treatment with salt (E. coli (ATCC 25922) [8]; 150 mM NaCl in MHB): −
Activity after treatment with salt (S. aureus (ATCC 25923) [9]; 0 mM NaCl in MHB): +
Activity after treatment with salt (S. aureus (ATCC 25923) [9]; 50 mM NaCl in MHB): +
Activity after treatment with salt (S. aureus (ATCC 25923) [9]; 100 mM NaCl in MHB): +
Activity after treatment with salt (S. aureus (ATCC 25923) [9]; 150 mM NaCl in MHB): −
Activity after treatment with plasma (E. coli (ATCC 25922) [10]; 0 h): +
Activity after treatment with plasma (E. coli (ATCC 25922) [10]; 3 h): +
Activity after treatment with plasma (E. coli (ATCC 25922) [10]; 6 h): +
Activity after treatment with plasma (S. aureus (ATCC 25923) [11]; 0 h): +
Activity after treatment with plasma (S. aureus (ATCC 25923) [11]; 3 h): +
Activity after treatment with plasma (S. aureus (ATCC 25923) [11]; 6 h): +
Antimicrobial activity in 50% human plasma compared with PBS [12]: not significantly different from that in PBS
Antimicrobial activity MIC ([5]; Staphylococcus aureus ATCC 25923, broth micro-dilution (CLSI), MHB, approx. 5 × 10^5 CFU/ml, overnight 37 °C, triplicate): 8 µg/mL
Antimicrobial activity MIC ([6]; Staphylococcus aureus ATCC 29213, broth micro-dilution (CLSI), MHB, approx. 5 × 10^5 CFU/ml, overnight 37 °C, triplicate): 8 µg/mL
Antimicrobial activity MIC ([7]; Enterococcus faecalis ATCC 29212, broth micro-dilution (CLSI), MHB, approx. 5 × 10^5 CFU/ml, overnight 37 °C, triplicate): 16 µg/mL
Antimicrobial activity MIC (Listeria monocytogenes; Listeria monocytogenes clinical isolate, broth micro-dilution (CLSI), MHB, approx. 5 × 10^5 CFU/ml, overnight 37 °C, triplicate): 32 µg/mL
Antimicrobial activity MIC ([1]; Pseudomonas aeruginosa ATCC 27853, broth micro-dilution (CLSI), MHB, approx. 5 × 10^5 CFU/ml, overnight 37 °C, triplicate): 8 µg/mL
Antimicrobial activity MIC (MRSA ATCC 33591; MRSA ATCC 33591 (resistant strain), broth micro-dilution (CLSI), MHB, approx. 5 × 10^5 CFU/ml, overnight 37 °C, triplicate): 64 µg/mL
Antimicrobial activity MIC (VRE; VRE clinical isolate (resistant strain), broth micro-dilution (CLSI), MHB, approx. 5 × 10^5 CFU/ml, overnight 37 °C, triplicate): 64 µg/mL
Antimicrobial activity MIC ([2]; Pseudomonas aeruginosa VIM+ (resistant strain), broth micro-dilution (CLSI), MHB, approx. 5 × 10^5 CFU/ml, overnight 37 °C, triplicate): 256 µg/mL
Antimicrobial activity MIC ([4]; Klebsiella pneumonia ATCC 700603 (resistant strain), broth micro-dilution (CLSI), MHB, approx. 5 × 10^5 CFU/ml, overnight 37 °C, triplicate): 8 µg/mL

CNC(C)C1CCC(N)C(OC2C(N)CC(N)C(OC3OCC(C)(O)C(NC)C3O)C2O)O1 (stereo not drawn) [Gentamicin]
MIC (Salmonella typhi): ≤ 2 µg/mL
MIC (Salmonella paratyphi C): ≤ 1 µg/mL
MIC (Shigella dysenteriae): 4 µg/mL (≈ 8.38 µM)
MIC [5]: ≤ 1 µg/mL
MIC [6]: ≤ 1 µg/mL
MIC [7]: ≤ 1 µg/mL
MIC (Listeria monocytogenes): 8 µg/mL (≈ 16.8 µM)
MIC (E. coli ATCC 25922): ≤ 1 µg/mL
MIC [1]: ≤ 16 µg/mL
MIC (MRSA ATCC 33591): ≥ 16 µg/mL
MIC (VRE): ≥ 16 µg/mL
MIC [2]: ≥ 16 µg/mL
MIC [3]: ≥ 16 µg/mL
MIC [4]: ≥ 16 µg/mL
